The values below come from ChEMBL document CHEMBL1139684, “Potent benzimidazolone based human beta(3)-adrenergic receptor agonists” (Bioorg Med Chem Lett, 2006).

The target of data set [1] is T1, Beta-3 adrenergic receptor (Homo sapiens, UniProt P13945). Put plainly: Agonist activity at human beta-3 adrenergic receptor expressed in CHO cells assessed as cAMP levels at 100 nM relative to isoproterenol. Type of data set: functional, cell-based. (In general: cAMP levels reflect the balance of adenylyl cyclase and phosphodiesterase activity.)
Target sequence in this assay (P13945 whole entry, looked up): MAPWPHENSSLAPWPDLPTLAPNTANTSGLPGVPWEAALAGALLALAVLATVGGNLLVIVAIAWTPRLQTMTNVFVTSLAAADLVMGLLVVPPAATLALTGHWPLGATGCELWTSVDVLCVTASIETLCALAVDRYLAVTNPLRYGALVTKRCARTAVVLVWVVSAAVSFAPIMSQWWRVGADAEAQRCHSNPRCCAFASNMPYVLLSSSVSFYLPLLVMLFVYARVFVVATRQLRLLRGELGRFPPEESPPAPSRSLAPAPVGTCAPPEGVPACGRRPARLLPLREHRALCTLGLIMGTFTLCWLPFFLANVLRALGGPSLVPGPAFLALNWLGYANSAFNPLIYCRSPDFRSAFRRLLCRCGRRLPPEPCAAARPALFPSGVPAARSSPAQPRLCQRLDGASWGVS
The target of data set [2] is T1, Beta-3 adrenergic receptor. As to the kind of experiment: Agonist activity at human beta3 adrenergic receptor expressed in CHO cells assessed as cAMP levels. Type of data set: functional, cell-based.
Target sequence in this assay (P13945 whole entry): as the sequence (P13945 whole entry, looked up) above
The target in data set [3] is Beta-1 adrenergic receptor (Homo sapiens, UniProt P08588). As to the kind of experiment: Agonist activity at human beta-1 adrenergic receptor expressed in CHO cells assessed as cAMP levels. Type of data set: functional, cell-based.
The species named for data set [4] is Rattus norvegicus. As to the kind of experiment: Increase in heart rate in rat at 0.01 mM. Type of data set: functional.
The target of data set [5] is T1, Beta-3 adrenergic receptor. Put plainly: Agonist activity at human beta-3 adrenergic receptor expressed in CHO cells assessed as cAMP levels relative to isoproterenol. It counts as functional, cell-based. To be noted: filed as agonist.
Target sequence in this assay (P13945 whole entry, looked up): as above
Data set [6] deals with Beta-2 adrenergic receptor (Homo sapiens, UniProt P07550). Put plainly: Agonist activity at human beta-2 adrenergic receptor expressed in CHO cells assessed as cAMP levels. Type of data set: functional, cell-based.
For data set [7], the target named is Beta-3 adrenergic receptor (Rattus norvegicus) (UniProt P26255). Put plainly: Agonist activity at rat beta-3 adrenergic receptor expressed in CHO cells assessed as cAMP levels relative to isoproterenol. It counts as functional, cell-based. Particulars: filed as agonist.
For data set [8], the system named is Rattus norvegicus. Put plainly: Reduction in respiratory quotient in DIO Long-Evans rat at 10 mg/kg, po after 20 hrs relative to control. Type of data set: functional. More on the design: scale not given: the % may be the effect or the level left.
Data set [9] has as its system Rattus norvegicus. As to the kind of experiment: Increase in energy expenditure in DIO Long-Evans rat at 10 mg/kg, po after 20 hrs relative to control. Type of data set: functional.
In data set [10] the target is Beta-3 adrenergic receptor (Rattus norvegicus, UniProt P26255). As to the kind of experiment: Agonist activity at rat beta-3 adrenergic receptor expressed in CHO cells assessed as cAMP levels. It counts as functional, cell-based.
A short description of data set [11]: AUC (0-6h) in DIO Long-Evans rat at 10 mg/kg, po. Particulars: plasma. Details: time < 6 hr, dose 10 mg/kg, route oral. Type of data set: ADME, organism-based.

For orientation: EC50 means the concentration at which the effect is half-maximal. The Emax is the greatest response seen or fitted, relative to the assay's reference. By AUC(0-t) is commonly meant the area under the concentration-time curve up to a stated or last time point.

Sequence of Beta-2 adrenergic receptor (P07550 whole entry): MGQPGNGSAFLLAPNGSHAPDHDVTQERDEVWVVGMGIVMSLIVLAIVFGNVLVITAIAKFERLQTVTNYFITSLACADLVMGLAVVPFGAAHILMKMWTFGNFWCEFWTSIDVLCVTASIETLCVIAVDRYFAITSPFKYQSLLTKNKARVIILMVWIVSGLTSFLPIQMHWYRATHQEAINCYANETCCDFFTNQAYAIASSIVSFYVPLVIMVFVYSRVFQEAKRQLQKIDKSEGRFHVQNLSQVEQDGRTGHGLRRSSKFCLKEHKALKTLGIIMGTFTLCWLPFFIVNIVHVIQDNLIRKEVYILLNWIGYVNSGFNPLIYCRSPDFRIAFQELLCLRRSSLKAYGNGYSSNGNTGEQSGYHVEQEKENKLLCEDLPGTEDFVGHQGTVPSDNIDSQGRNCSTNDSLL
Sequence of Beta-1 adrenergic receptor (P08588 whole entry): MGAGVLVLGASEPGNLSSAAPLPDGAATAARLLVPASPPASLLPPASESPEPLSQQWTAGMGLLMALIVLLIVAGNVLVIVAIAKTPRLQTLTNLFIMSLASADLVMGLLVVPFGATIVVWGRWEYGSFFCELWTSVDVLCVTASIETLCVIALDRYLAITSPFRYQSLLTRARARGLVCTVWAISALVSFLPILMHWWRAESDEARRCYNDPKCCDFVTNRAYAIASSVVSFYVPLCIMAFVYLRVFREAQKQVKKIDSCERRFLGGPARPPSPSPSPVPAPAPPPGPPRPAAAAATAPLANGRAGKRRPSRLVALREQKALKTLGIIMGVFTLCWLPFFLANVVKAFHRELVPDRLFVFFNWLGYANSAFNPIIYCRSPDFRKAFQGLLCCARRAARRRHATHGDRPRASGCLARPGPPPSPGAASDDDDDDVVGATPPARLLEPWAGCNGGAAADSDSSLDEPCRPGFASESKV
Sequence of Beta-3 adrenergic receptor (Rattus norvegicus, UniProt P26255) (P26255 whole entry): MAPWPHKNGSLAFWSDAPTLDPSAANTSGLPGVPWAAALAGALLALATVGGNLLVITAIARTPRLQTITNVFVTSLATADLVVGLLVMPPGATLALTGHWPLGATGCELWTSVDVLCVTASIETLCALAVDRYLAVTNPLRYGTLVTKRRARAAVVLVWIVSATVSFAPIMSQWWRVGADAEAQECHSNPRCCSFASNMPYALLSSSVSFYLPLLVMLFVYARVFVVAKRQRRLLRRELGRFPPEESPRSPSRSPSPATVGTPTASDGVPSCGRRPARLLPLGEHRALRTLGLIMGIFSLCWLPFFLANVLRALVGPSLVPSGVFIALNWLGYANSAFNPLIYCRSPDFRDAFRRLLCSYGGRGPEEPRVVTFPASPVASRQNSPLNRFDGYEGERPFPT
Sequence of Beta-3 adrenergic receptor (Rattus norvegicus) (P26255 whole entry): as above

Regarding `CC(Cc1ccc(Oc2ccc(C(=O)O)cc2)cc1)NC[C@H](O)COc1cccc2c1[nH]c(=O)n2C` (stereo not given in full), the Activity in [1] is 30%.

For `CC(C)(Cc1ccc(Oc2ccc(C(N)=O)cn2)cc1)NC[C@H](O)COc1cccc2[nH]c(=O)n(CCC3CCCC3)c12`, the figures for the EC50 in data set [2] and in data set [3] were 0.0117 µM (agonist) and above 10 µM, respectively. In the data set listed under Rattus norvegicus [4], this compound registered an Activity of 9.9%. The Emax in data set [5] was 63.7%.

With `CC(Cc1ccc(Oc2ccc(C(=O)O)cc2)cc1)NC[C@H](O)COc1cccc2[nH]c(=O)n(C)c12` (stereo not given in full), in data set [1] (filed as agonist), the Activity was 84%.

`CCCn1c(=O)[nH]c2cccc(OC[C@@H](O)CNC(C)(C)Cc3ccc(Oc4ccc(C(N)=O)cn4)cc3)c21`: the concentration giving a half-maximal response (EC50) in data set [2] was 0.0052 µM (agonist); in [3], above 10 µM; in data set [6] it was above 10 µM. The Activity in the data set listed under Rattus norvegicus [4] is on record as 19.9%. Also, the Emax in data set [5] was 73.9%.

As for `CC(C)(Cc1ccc(Oc2ccc(C(N)=O)cn2)cc1)NC[C@H](O)COc1cccc2[nH]c(=O)n(CCC3CCC3)c12`, the Emax was 49.6% in data set [7] and 58.2% in data set [5]. Besides, the concentration giving a half-maximal response (EC50) in [2] was 0.0101 µM (agonist); in [3], above 10 µM; in [6], above 10 µM; in data set [10], 0.0287 µM (agonist). Moreover, the Activity stood at 29% with Rattus norvegicus [8], 6.5% in the data set filed under Rattus norvegicus [4] and 18% in the data set on Rattus norvegicus [9]. In data set [11], this compound registered an AUC(0-t) at 6 h of 112 ng·h/mL.

As for `CC(Cc1ccc(Oc2ccc(C(=O)O)cc2)cc1)NC[C@H](O)COc1cccc2c1n(C)c(=O)n2C` (stereo not given in full), the Activity in data set [1] turned out to be 28%.

As to `CC(Cc1ccc(Oc2ccc(C#N)cn2)cc1)NC[C@H](O)COc1cccc2[nH]c(=O)n(C)c12` (stereo not given in full), the Activity in [1] (filed as agonist) is 83%.

Turning to `CC(Cc1ccc(Oc2ccc(C(N)=O)cn2)cc1)NC[C@H](O)COc1cccc2c1n(C)c(=O)n2C` (stereo not given in full), the Activity in data set [1] was found to be 25%.

Regarding `CC(C)(Cc1ccc(Oc2ccc(C(N)=O)cn2)cc1)NC[C@H](O)COc1cccc2[nH]c(=O)n(CCC3CC3)c12`, the Emax in data set [7] was 42.7%; in [5], 67.9%. Also, the half-maximal effective concentration (EC50) in data set [2] was 0.0054 µM (agonist); in [3] it was above 10 µM; in [6] it was above 10 µM; in [10], 0.0068 µM (agonist). In the data set listed under Rattus norvegicus [4], this compound returned an Activity of 8.9%.

Consider `CC(Cc1ccc(Oc2ccc(C(N)=O)cn2)cc1)NC[C@H](O)COc1cccc2c1[nH]c(=O)n2C` (stereo not given in full), for which the Activity in data set [1] came to 33%.

For `CC(Cc1ccc(Oc2ccc(C(N)=O)cn2)cc1)NC[C@H](O)COc1cccc2[nH]c(=O)[nH]c12` (stereo not given in full), the Activity in [1] (filed as agonist) is 97%.

In the case of `CCn1c(=O)[nH]c2cccc(OC[C@@H](O)CNC(C)(C)Cc3ccc(Oc4ccc(C(N)=O)cn4)cc3)c21`, the values for the EC50 in data set [2], in [3] and in data set [6] were 0.0052 µM (agonist), above 10 µM and above 10 µM, respectively. Moreover, the Activity in the data set listed under Rattus norvegicus [4] was determined as 20.8%. Besides, the Emax in data set [5] is 65.1%.

In the case of `CC(Cc1ccc(Oc2ccc(C#N)cn2)cc1)NC[C@H](O)COc1cccc2c1n(C)c(=O)n2C` (stereo not given in full), in data set [1], the Activity turned out to be 11%.

As for `CC(Cc1ccc(Oc2ccc(C#N)cn2)cc1)NC[C@H](O)COc1cccc2[nH]c(=O)[nH]c12` (stereo not given in full), in data set [1] (filed as agonist), the Activity is 88%.

Consider `CC(Cc1ccc(Oc2ccc(C(=O)O)cc2)cc1)NC[C@H](O)COc1cccc2[nH]c(=O)[nH]c12` (stereo not given in full), for which the Activity in [1] (filed as agonist) is 99%.

As for `CC(Cc1ccc(Oc2ccc(C(N)=O)cn2)cc1)NC[C@H](O)COc1cccc2[nH]c(=O)n(C)c12` (stereo not given in full), the Activity in [1] (filed as agonist) is 87%.

Consider `Cn1c(=O)[nH]c2cccc(OC[C@@H](O)CNC(C)(C)Cc3ccc(Oc4ccc(C(N)=O)cn4)cc3)c21`, for which the results for the maximum response (Emax) in data set [7] and in data set [5] were 59.6% and 79.7%, respectively. Besides, the EC50 is 0.0071 µM (agonist) in data set [2], 0.0087 µM (agonist) in data set [3], above 10 µM in data set [6] and 0.0245 µM (agonist) in [10]. In the data set filed under Rattus norvegicus [4], this compound registered an Activity of 17.7%.

As to `CC(Cc1ccc(Oc2ccc(C#N)cn2)cc1)NC[C@H](O)COc1cccc2c1[nH]c(=O)n2C` (stereo not given in full), the Activity in [1] was found to be 29%.
